Laboratory results as given in PubChem BioAssay (NCI).
“And” between values parts separate entries of the source, which are not always exact repeats. Identical values can stand only once.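 1) Cells in 96-well plates. 2) Compound, 48 h, 5 concentrations. 3) Linear interpolation between surrounding doses. 4) Unreached endpoint = highest concentration. At the GI50, growth is halved. TGI: total growth inhibition.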

Tests used:
Assay in all cases: NCI tumour cell line growth inhibition, 48 h
[1] = test system: SNB-19 CNS
[2] = test system: HT29 colon
[3] = test system: SK-MEL-2 melanoma
[4] = test system: HL-60(TB) leukemia
[5] = test system: PC-3 prostate
[6] = test system: NCI-H226 lung
[7] = test system: UACC-257 melanoma
[8] = test system: CAKI-1 renal
[9] = test system: KM12 colon
[10] = test system: HS 578T breast

Structure (SMILES)	TGI [1]	TGI [2]	TGI [3]	TGI [4]	TGI [5]	TGI [6]	TGI [7]	TGI [8]	TGI [9]	TGI [10]	GI50 [1]	GI50 [2]	GI50 [3]	GI50 [4]	GI50 [5]	GI50 [6]	GI50 [7]	GI50 [8]	GI50 [9]	GI50 [10]
COc1cc2ccc(/C=C\[N+](=O)[O-])cc2cc1OC	27.7 µM	4 µM	9.43 µM	5.07 µM	7.28 µM	76.5 µM	> 22.9 µM	20 µM	19.3 µM	37.8 µM										
CC(=O)OCC1OC(n2cnc(C(N)=S)c2N)C(OC(C)=O)C1OC(C)=O (stereo unspecified)	> 100 µM	> 100 µM	> 100 µM	> 100 µM	> 100 µM	> 100 µM	> 100 µM	> 100 µM	> 100 µM	> 100 µM										
O=[N+]([O-])O.[Cu+2].[NH-]CC[NH-].[NH-]CC[NH-]	> 10 µM	> 10 µM	> 10 µM	> 10 µM	> 10 µM	> 10 µM	> 10 µM	> 10 µM	> 10 µM	> 10 µM	> 10 µM	> 10 µM	> 10 µM	> 10 µM	> 10 µM	> 10 µM	> 10 µM	> 10 µM	> 10 µM	> 10 µM
CCC1C2Cc3ccc(O)cc3C1(CC)CCN2C (stereo unspecified)	> 100 µM	> 100 µM	> 100 µM	> 100 µM	> 100 µM	> 100 µM	> 100 µM	> 100 µM	> 100 µM	> 100 µM										
COc1ccc(-c2cc(=O)[nH]c3c(OC)c4ccccc4c(OC)c23)cc1	> 100 µM		> 100 µM		> 100 µM	> 100 µM	> 100 µM	> 100 µM	> 100 µM		2.06 µM	0.342 µM	0.486 µM	0.276 µM	0.382 µM	> 20 µM		0.376 µM	0.323 µM	0.345 µM
COc1ccc(C(=O)c2cc(OC)c(OC)c(OC)c2)cc1OC(=O)CCl	> 100 µM	> 100 µM	> 100 µM	< 0.025 µM	> 100 µM	> 100 µM	> 100 µM	> 100 µM	> 100 µM	> 100 µM	< 0.0283 µM	1.94 µM	0.436 µM	< 0.0152 µM	< 0.0192 µM	11.3 µM	> 100 µM	0.151 µM	< 0.0143 µM	0.0281 µM
O=C1Nc2ccccc2/C1=C/C(=O)c1coc2c1C(=O)c1ccccc1C2=O	> 100 µM	> 100 µM	> 100 µM	> 100 µM	> 100 µM	> 100 µM	> 100 µM	> 100 µM	> 100 µM	> 100 µM	> 100 µM	> 100 µM	> 100 µM	> 100 µM	> 100 µM	> 100 µM	> 100 µM	34.2 µM	> 100 µM	> 100 µM
Cc1nn2c(/C=C3\C(=O)Nc4ccc(Cl)cc43)c(C)nc2s1	> 100 µM	> 100 µM	82.4 µM	43.4 µM	> 100 µM	> 100 µM	> 100 µM	> 100 µM	> 100 µM	> 100 µM	26.9 µM	5.16 µM	22.2 µM	13.5 µM	21.3 µM	> 100 µM	> 100 µM	26 µM	6.84 µM	61.8 µM
COc1ccc(-c2nc(-c3nc4ccc(OC)cc4[nH]3)c3ccccn23)cc1	> 100 µM	> 100 µM	16.5 µM	7.75 µM	32.2 µM	> 100 µM	26.1 µM	49.4 µM	15.8 µM	7.15 µM	5.26 µM	3.75 µM	4.07 µM	2.55 µM	3.01 µM	6.57 µM	4.39 µM	3.81 µM	3.88 µM	2.57 µM
COc1cc(CSc2nc3ccc(C)cc3c(=O)n2-c2ccccc2)cc(OC)c1OC	> 100 µM	> 100 µM	> 100 µM	> 100 µM	> 100 µM	> 100 µM	> 100 µM	> 100 µM	> 100 µM	> 100 µM	13.8 µM	0.759 µM	3.52 µM	1.72 µM	3.25 µM	3.4 µM	19.4 µM	2.79 µM	0.99 µM	2.16 µM
C=C1C(=O)O[C@H]2[C@H]1CC/C(COC(=O)NCc1ccc(Cn3c(=O)sn(CCCl)c3=O)cc1)=C\CC[C@@]1(C)O[C@@H]21	26.1 µM	4.77 µM	24.7 µM	4.96 µM	21 µM	37.3 µM	4.98 µM	3.71 µM	27.7 µM	55.9 µM	11.9 µM	2.16 µM	10.6 µM	1.92 µM	8.09 µM	17.2 µM	1.85 µM	1.76 µM	13.4 µM	12.1 µM
CCN(CC)CCCC(C)Nc1ccnc2cc(Oc3ccccc3)ccc12 (stereo unspecified)	66.3 µM and > 100 µM	8.37 µM and 12 µM	8.96 µM and 5.68 µM	9.38 µM and 41.6 µM	35.5 µM and > 100 µM	31.1 µM and > 100 µM	3.59 µM and 3.94 µM	37.9 µM and 36.2 µM	24.3 µM and > 100 µM	24.3 µM and 56.5 µM	15.8 µM and 25.4 µM	0.627 µM and 1.12 µM	3.05 µM and 2.36 µM	3.24 µM and 13.1 µM	8.89 µM and 19.3 µM	8.4 µM and 14.9 µM	1.95 µM and 2.09 µM	13.1 µM and 5.96 µM	8.52 µM and 10.6 µM	5.5 µM and 16.7 µM
C=C1C(=O)O[C@H]2[C@H]1CC/C(COC(=O)NCc1cn(C)c3ccccc13)=C\CC[C@@]1(C)O[C@@H]21	13 µM	3 µM	7.79 µM	2.86 µM	4.79 µM	20.9 µM	4.03 µM	2.64 µM	7.67 µM	35.7 µM	2.84 µM	1.22 µM	2.55 µM	0.49 µM	1.76 µM	4.38 µM	1.56 µM	1.32 µM	2.88 µM	3.54 µM
CN[C@@H](C)C(=O)N[C@H](C(=O)N1CCC[C@H]1C(=O)Nc1snnc1-c1ccccc1)C1CCCCC1	> 100 µM	> 67.3 µM	> 63.9 µM	48.1 µM	> 100 µM	> 100 µM	25.5 µM	> 100 µM	> 100 µM	> 100 µM	> 100 µM	31.7 µM	27.4 µM	21.7 µM	48.6 µM	> 100 µM	0.405 µM	68 µM	34.4 µM	72.8 µM
C=C1CCC2C3(C)COC(c4ccc(N(C)C)cc4)OC3CCC2(C)C1C/C=C1/C(=O)OCC1O (stereo unspecified)	32.3 µM	6.19 µM	13.7 µM	3.6 µM	9.83 µM	18.2 µM	26.8 µM	5.66 µM	7.58 µM	6.69 µM	16.4 µM	2.43 µM	5.15 µM	1.36 µM	2.32 µM	6.09 µM	13.1 µM	2.12 µM	2.62 µM	2.13 µM
O=C(O)CNC(=O)c1ccc(-c2ccccc2)cc1	> 100 µM		> 100 µM	> 100 µM	> 100 µM	> 100 µM	> 100 µM	> 100 µM	> 100 µM	> 100 µM										
Cc1c(C(N)=O)sc2c1C(=O)N(Cc1ccccc1)C1=NN=C(c3ccc(Cl)cc3)CN12	16.1 µM	16.1 µM	18.6 µM	46.1 µM	20.9 µM	11.8 µM	16.5 µM	10.3 µM	16.6 µM	34.2 µM	3.71 µM	4.8 µM	6.1 µM	2.59 µM	3.84 µM	2.49 µM	3.75 µM	1.17 µM	4.07 µM	5.88 µM
CC1CCC(NC(=O)N(CCCl)N=O)CC1 (stereo unspecified)	110 µM	109 µM	48.1 µM and 91.2 µM	24.1 µM and 72.2 µM	96.6 µM	150 µM	89.8 µM	37.5 µM and 53.2 µM	112 µM	155 µM	55 µM		20.4 µM	8.98 µM		36.1 µM	33.5 µM	18.9 µM	36.6 µM	
Fc1ccc2c(c1)C1=NN(c3ccccc3)C(F)C1CO2 (stereo unspecified)	> 50 µM	26.3 µM	> 50 µM	> 50 µM	> 50 µM	19.1 µM	26.5 µM	20.2 µM	45.6 µM	28.1 µM	26.6 µM	10 µM	19.4 µM	17.9 µM	11.1 µM	8.08 µM	9.7 µM	6.41 µM	16.1 µM	10.6 µM
N#CC(NC12CC3CC(CC(C3)C1)C2)c1ccc2c(c1)OCO2 (stereo unspecified)	> 100 µM	> 100 µM	> 100 µM	> 100 µM	> 100 µM	> 100 µM	> 100 µM	> 100 µM	> 100 µM	> 100 µM										
Nc1c(C(=O)c2cccc(-c3ccncc3)c2)cnn1-c1ccc(F)cc1F	> 25 µM	> 25 µM	> 19.7 µM	> 25 µM	> 25 µM	> 25 µM	> 25 µM	> 25 µM	> 25 µM	> 25 µM	> 19.3 µM	2.48 µM	6.43 µM	5.57 µM	4.83 µM	4.36 µM	9.47 µM	8.1 µM	2.05 µM	> 25 µM
COc1c(C)c2c(c(O)c1C/C=C(\C)CCC(=O)O)C(=O)OC2	> 100 µM	> 100 µM	> 100 µM	> 100 µM	> 100 µM	> 100 µM	> 100 µM	14.7 µM	> 100 µM	> 100 µM	0.286 µM	0.248 µM	2 µM	0.639 µM	0.61 µM	2.58 µM	0.434 µM	0.134 µM	0.374 µM	0.853 µM
COc1cc(/C=C/C(=O)c2cccc(Nc3nc(Nc4ccccc4)nc(Nc4ccccc4)n3)c2)cc(OC)c1OC	> 100 µM	> 100 µM	> 65.4 µM	4.1 µM	> 100 µM	> 81 µM	> 100 µM	> 26.2 µM	> 87.9 µM	> 54.4 µM	10.1 µM	6.41 µM	7.78 µM	1.33 µM	2.19 µM	17.2 µM	25 µM		3.71 µM	4.83 µM
COc1ccc(C2=CC(c3ccc4c(c3)OCO4)c3c(c4ccccc4oc3=O)O2)cc1OC (stereo unspecified)	> 100 µM	> 100 µM	> 100 µM	1.67 µM	> 100 µM	6.72 µM	> 100 µM	> 100 µM	> 100 µM	> 25.6 µM										
C=C(C)C(=O)Nc1ccc(NC(C)C)cc1	> 100 µM	> 100 µM	> 100 µM	> 100 µM	> 100 µM	> 100 µM	> 100 µM	> 100 µM	> 100 µM	> 100 µM	> 100 µM	> 100 µM	> 100 µM	> 100 µM	> 100 µM	> 100 µM	> 100 µM	> 100 µM	> 100 µM	> 100 µM
COc1ccc2nc3cccc([N+](=O)[O-])c3c(NCCCCCC(=O)O)c2c1	2.84 µM	0.392 µM	0.117 µM	6.2 µM	1.36 µM	1.33 µM	0.926 µM	0.284 µM	0.22 µM	2.03 µM	0.178 µM	0.014 µM	0.0342 µM	0.0372 µM		0.306 µM	0.257 µM	0.0365 µM	0.0262 µM	0.456 µM
CN(CCCn1c2c(c3ccccc3c1=O)C(=O)c1ccccc1-2)CCCn1c2c(c3ccccc3c1=O)C(=O)c1ccccc1-2	28 µM		> 51.8 µM	12.6 µM		> 36.9 µM	> 73.2 µM	24.8 µM	1.05 µM	> 100 µM	0.081 µM		27.6 µM	3.65 µM	0.29 µM	0.99 µM	21.6 µM	2 µM	0.15 µM	2.67 µM
O=C1c2ccccc2C(O)(O)C1(O)C1(O)C(=O)c2ccccc2C1(O)O (stereo unspecified)	> 100 µM	> 100 µM	> 100 µM	53.2 µM	> 100 µM	> 100 µM		> 100 µM	> 100 µM	> 100 µM										
